Experimental data taken from US4115385A, “Antibacterial 3-(5-tetrazolyl) penam compounds” (Pfizer Inc., priority 1977, dated 1978).
Values after ≈ are worked out from the molar mass of the structure shown. Like-named read-outs stand apart in the source and are kept apart here.

Key:
Staphylococcus aureus [1] = assay: In vitro minimum inhibitory concentration (MIC) vs. Staph. aureus; type: cell-based; settings: for MIC: Staphylococcus aureus
Method: The antibacterial penam compounds of the instant invention show activity against a wide variety of gram-positive and gram-negative bacteria. […] The broth is inoculated with the bacterial culture, and with the test antibiotic, and then it is incubated overnight. On the next day, the test is read visually. The minimum inhibitory concentration (MIC) is the lowest concentration of antibiotic which prevents turbidity, i.e., which prevents growth of the microorganism. In vitro activities of several of the penam compounds of the invention are presented later in this specification.
In Table II, the minimum inhibitory concentrations (MIC's) of compounds of formula I, wherein R^2 is hydrogen, against a strain of Streptococcus pyogenes, are reported; and in Table III, minimum inhibitory concentrations of compounds of formula I, wherein R^2 is hydrogen, against a strain of Staphylococcus aureus, are presented. Because of the tautomeric nature of such tetrazole derivatives, referred to hereinbefore,each of the preparations tested also contains some of the corresponding compound of formula II, wherein R^3 is hydrogen.

Staphylococcus aureus [2] = assay: In vivo protection of mice against systemic infection by Staphylococcus aureus; settings: multiple dosing
Method: (§1) The antibacterial penam compounds of the instant invention are also active in vivo. In determining such activity, the test antibiotic is administered to infected mice, using a multiple dosing regimen. The severity of the infection varies from about one to about ten times that needed to kill 100% of the mice under the conditions of the test. At the end of the test, the activity of a compound is assessed by counting the number of survivors among the treated animals. Both the subcutaneous (SC) and the oral (PO) dosage routes are used. Results are given in Table I for two of the compounds of the invention. The ability of the compounds to protect mice against systemic infections caused by a lethal intraperitoneal inoculum of Staphylococcus aureus or of Escherichia coli is presented.

Escherichia coli = assay: In vivo protection of mice against systemic infection by Escherichia coli; settings: multiple dosing
Method: as §1

Streptococcus pyogenes = assay: In vitro minimum inhibitory concentration (MIC) vs. Strep. pyogenes; type: cell-based; settings: Streptococcus pyogenes; Table II; two-fold serial dilution, Brain-Heart Infusion broth, overnight; read-out: MIC vs. Strep. pyogenes
In short: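 Broth inoculated with bacteria and test antibiotic, incubated overnight and read visually; MIC is the lowest concentration preventing turbidity. Test preparations also contain some of the corresponding tetrazole tautomer.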

[3] = Table III, two-fold serial dilution, Brain-Heart Infusion broth, overnight, read-out: MIC vs. Staph. aureus
[4] = Table IV, values marked *, read-out: MIC against Staph. aureus

SMILES: CC1(C)S[C@@H]2[C@H](NC(=O)[C@H](NC(=S)NC(=O)c3ccco3)c3ccccc3)C(=O)N2[C@H]1c1nn[nH]n1
- MIC (Staphylococcus aureus [1]; [3]): 0.78 µg/mL (≈ 1.48 µM)

SMILES: Cc1ccc(S(=O)(=O)NC(=O)N[C@@H](C(=O)N[C@@H]2C(=O)N3[C@@H]2SC(C)(C)[C@@H]3c2nn[nH]n2)c2ccccc2)cc1
- MIC (Staphylococcus aureus [1]; [3]): 6.25 µg/mL (≈ 11 µM)

SMILES: CC(C)C(NC(=N)c1ccncc1)C(=O)N[C@@H]1C(=O)N2[C@@H]1SC(C)(C)[C@@H]2c1nnn[nH]1 (stereo partly drawn)
- MIC (Staphylococcus aureus [1]; [3]): 50 µg/mL (≈ 113 µM)

SMILES: CC1(C)S[C@@H]2[C@H](NC(=O)[C@H](NC(=O)CNC(=N)c3ccc[nH]3)c3ccccc3)C(=O)N2[C@H]1c1nnn[nH]1
- MIC (Staphylococcus aureus [1]; [3]): 50 µg/mL (≈ 95.7 µM)

SMILES: CC1(C)S[C@@H]2[C@H](NC(=O)[C@H](NC(=O)CNC(=O)c3cc(Br)cc(Br)c3)c3ccccc3)C(=O)N2[C@H]1c1nnn[nH]1
- MIC (Staphylococcus aureus [1]; [3]): 1.56 µg/mL (≈ 2.25 µM)

SMILES: CC1(C)S[C@@H]2[C@H](NC(=O)[C@H](NC(=O)CC3=NCCN3)c3ccccc3)C(=O)N2[C@H]1c1nnn[nH]1
- MIC (Staphylococcus aureus [1]; [3]): 3.12 µg/mL (≈ 6.45 µM)

SMILES: CC(=N)NCC(=O)N[C@@H](C(=O)N[C@@H]1C(=O)N2[C@@H]1SC(C)(C)[C@@H]2c1nnn[nH]1)c1ccccc1
- MIC (Staphylococcus aureus [1]; [3]): 1.56 µg/mL (≈ 3.31 µM)

SMILES: CC1(C)S[C@@H]2[C@H](NC(=O)[C@H](NS(=O)(=O)Cc3ccccc3)c3ccccc3)C(=O)N2[C@H]1c1nn[nH]n1
- MIC (Staphylococcus aureus [1]; [3]): 0.39 µg/mL (≈ 0.739 µM)

SMILES: CC1(C)S[C@@H]2[C@H](NC(=O)[C@H](NS(=O)(=O)c3ccc(Cl)cc3)c3ccccc3)C(=O)N2[C@H]1c1nn[nH]n1
- MIC (Staphylococcus aureus [1]; [3]): 1.56 µg/mL (≈ 2.85 µM)

SMILES: CC1(C)S[C@@H]2[C@H](NC(=O)[C@H](NS(=O)(=O)c3ccc([N+](=O)[O-])cc3)c3ccccc3)C(=O)N2[C@H]1c1nn[nH]n1
- MIC (Staphylococcus aureus [1]; [3]): 1.56 µg/mL (≈ 2.79 µM)

SMILES: CC1(C)S[C@@H]2[C@H](NC(=O)CN)C(=O)N2[C@H]1c1nnn[nH]1 [2-aminoacetyl]
- MIC (Staphylococcus aureus [1]; [3]): 200 µg/mL (≈ 673 µM)

SMILES: CC1(C)S[C@@H]2[C@H](N3C(=O)[C@@H](c4ccc(O)cc4)NC3(C)C)C(=O)N2[C@H]1c1nnn[nH]1 [6-(2,2-Dimethyl-5-oxo-4-[p-hydroxyphenyl]-1-imidazolidinyl)-2,2-dimethyl-3-(5-tetrazolyl)penam]
- MIC (Staphylococcus aureus [1]; [4]): 0.78 µg/mL (≈ 1.82 µM)

SMILES: CC1(C)S[C@@H]2[C@H](N3C(=O)[C@@H](c4ccccc4)NC3(C)C)C(=O)N2[C@H]1c1nnn[nH]1 [6-(2,2-Dimethyl-5-oxo-4-phenyl-1-imidazolidinyl)-2,2-dimethyl-3-(5-tetrazolyl)penam]
- MIC (Staphylococcus aureus [1]; [4]): 1.56 µg/mL (≈ 3.77 µM)

SMILES: CC1(C)S[C@@H]2[C@H](NC(=O)C(NC(=O)CSc3ccncc3)c3ccccc3)C(=O)N2[C@H]1c1nn[nH]n1 (stereo partly drawn) [6-(2-[2-(4-Pyridylthio)acetamido]-2-phenylacetamido)-2,2-dimethyl-3-(5-tetrazolyl)penam]
- MIC (Staphylococcus aureus [1]; [3]): 100 µg/mL (≈ 191 µM)

SMILES: CN(C)C=NCC(=O)N[C@@H](C(=O)NC1C(=O)N2C1SC(C)(C)C2c1nnn[nH]1)c1ccccc1 (stereo partly drawn) [6-(D-2-[2-(dimethylaminoethyleneamino)acetamido]-2-phenylacetamido-2,2-dimethyl-3-(5-tetrazolyl)penam]
- MIC vs. Staph. aureus (Staphylococcus aureus [1]; Table III, two-fold serial dilution, Brain-Heart Infusion broth, overnight): 6.25 µg/mL (≈ 12.9 µM)

SMILES: CC1(C)S[C@@H]2[C@H](NC(=O)[C@H](NC(=O)CC(=N)N)c3ccccc3)C(=O)N2[C@H]1c1nn[nH]n1 [D-2-(2-[guanyl]acetamido)-2-phenylacetyl, 6-(D-2-[2-Guanylacetamido]-2-phenylacetamido)-2,2-dimethyl-3-(5-tetrazolyl)penam]
- MIC (Staphylococcus aureus [1]; [3]): 12.5 µg/mL (≈ 27.3 µM)

SMILES: CC(=O)N[C@@H](C(=O)N[C@@H]1C(=O)N2[C@@H]1SC(C)(C)[C@@H]2c1nnn[nH]1)c1ccccc1 [D-2-(acetamido)-2-phenylacetyl]
- MIC (Staphylococcus aureus [1]; [3]): 0.78 µg/mL (≈ 1.88 µM)

SMILES: CC1(C)S[C@@H]2[C@H](NC(=O)[C@H](NS(C)(=O)=O)c3ccccc3)C(=O)N2[C@H]1c1nn[nH]n1 [D-2-(methanesulfonamido)-2-phenylacetyl, 6-(D-2-Methanesulfonamido-2-phenylacetamido)-2,2-dimethyl-3-(5-tetrazolyl)penam]
- MIC (Staphylococcus aureus [1]; [3]): 1.56 µg/mL (≈ 3.45 µM)

SMILES: CCCS(=O)(=O)N[C@@H](C(=O)N[C@@H]1C(=O)N2[C@@H]1SC(C)(C)[C@@H]2c1nn[nH]n1)c1ccccc1 [D-2-(propanesulfonamido)-2-phenylacetyl]
- MIC (Staphylococcus aureus [1]; [3]): 0.78 µg/mL (≈ 1.63 µM)

SMILES: CC1(C)S[C@@H]2[C@H](NC(=O)[C@H](N)c3ccsc3)C(=O)N2[C@H]1c1nnn[nH]1 [D-2-amino-2-(3-thienyl)acetyl, 6-(D-2-Amino-2-[3-thienyl]acetamido)-2,2-dimethyl-3-(5-tetrazolyl)penam]
- MIC (Staphylococcus aureus [1]; [3]): < 0.1 µg/mL
- Percentage Protection S. aureus (Staphylococcus aureus [2]; 6 mg./kg. SC): 50%
- Percentage Protection S. aureus (Staphylococcus aureus [2]; 12 mg./kg. SC): 50%
- Percentage Protection S. aureus (Staphylococcus aureus [2]; 25 mg./kg. SC): 60%
- Percentage Protection S. aureus (Staphylococcus aureus [2]; 50 mg./kg. SC): 40%
- Percentage Protection E. coli (Escherichia coli; 25 mg./kg. SC): 20%
- Percentage Protection E. coli (Escherichia coli; 50 mg./kg. SC): 20%
- Percentage Protection E. coli (Escherichia coli; 200 mg./kg. PO): 0%

SMILES: CC1(C)S[C@@H]2[C@H](NC(=O)[C@H](N)c3ccc(O)cc3)C(=O)N2[C@H]1c1nnn[nH]1 [D-2-amino-2-(p-hydroxyphenyl)acetyl, 6-(D-2-Amino-2-[4-hydroxyphenyl]acetamido)-2,2-dimethyl-3-(5-tetrazolyl)penam]
- MIC (Streptococcus pyogenes): < 0.1 µg/mL
- Percentage Protection S. aureus (Staphylococcus aureus [2]; 6 mg./kg. SC): 50%
- Percentage Protection S. aureus (Staphylococcus aureus [2]; 12 mg./kg. SC): 50%
- Percentage Protection S. aureus (Staphylococcus aureus [2]; 25 mg./kg. SC): 70%
- Percentage Protection S. aureus (Staphylococcus aureus [2]; 50 mg./kg. SC): 80%
- Percentage Protection E. coli (Escherichia coli; 25 mg./kg. SC): 80%
- Percentage Protection E. coli (Escherichia coli; 50 mg./kg. SC): 100%
- Percentage Protection E. coli (Escherichia coli; 200 mg./kg. PO): 100%

SMILES: COc1ccc([C@@H](N)C(=O)N[C@@H]2C(=O)N3[C@@H]2SC(C)(C)[C@@H]3c2nnn[nH]2)cc1 [D-2-amino-2-(p-methoxyphenyl)acetyl]
- MIC (Staphylococcus aureus [1]; [3]): < 0.1 µg/mL

SMILES: CC1(C)S[C@@H]2[C@H](NC(=O)[C@H](N)Cc3c[nH]c4ccccc34)C(=O)N2[C@H]1c1nnn[nH]1 [D-2-amino-3-(3-indolyl)propionyl]
- MIC (Staphylococcus aureus [1]; [3]): 6.25 µg/mL (≈ 14.7 µM)

SMILES: CC1(C)S[C@@H]2[C@H](NC(=O)[C@H](O)c3ccccc3)C(=O)N2[C@H]1c1nnn[nH]1 [D-2-hydroxy-2-phenylacetyl, 6-(D-2-Hydroxy-2-phenylacetamido)-2,2-dimethyl-3-(5-tetrazolyl)penam]
- MIC (Staphylococcus aureus [1]; [3]): < 0.1 µg/mL

SMILES: CC1(C)S[C@@H]2[C@H](NC(=O)[C@@H](O)c3ccccc3)C(=O)N2[C@H]1c1nnn[nH]1 [L-2-hydroxy-2-phenylacetyl, 6-(L-2-Hydroxy-2-phenylacetamido)-2,2-dimethyl-3-(5-tetrazolyl)penam]
- MIC (Staphylococcus aureus [1]; [3]): < 0.1 µg/mL
